Measurements reported in patent EP0094564A2, “Azolyl-methyl oxiranes, their preparation and use as medicaments and plant protecting agents” (BASF Aktiengesellschaft, priority 1982, dated 1983).

Legend:
Coniophora puteana = assay: Versuch 6: fungal growth on malt extract agar containing active ingredient; assay type: cell-based; design: key: 0 = kein Pilzwachstum (Pilzmyzel abgetötet); 1 = geringes Pilzwachstum (bis 1/3 der Agaroberfläche bewachsen); 3 = mittleres Pilzwachstum (bis 2/3 der Agaroberfläche bewachsen); 5 = ungehemmtes Pilzwachstum (gesamte Agaroberfläche bewachsen); details: 40 ppm in 5 % malt extract agar; 5 days at 25 °C; growth score
Description: (§1) Die Wirkstoffe werden in Aceton gelöst, in Mengen von 40 ppm einem verflüssigten 5 %igen Malzextraktagar zugesetzt. Der Agar wird in Petrischalen ausgegossen und nach dem Erstarren werden die fungizidhaltigen Nähragarplatten zentral mit Myzel der holzzerstörenden Pilze Coniophora puteana und Trametes versicolor, des Moderfäule und Stockflecken verursachenden Pilzes Chaetomium globosum sowie mit Sporen des grünen Holzschimmels Trichoderma viride beimpft.
(§2) Nach fünftägiger Bebrütung der Schalen bei 25 °C wird die Entwicklung der Pilzkolonien auf dem Nährboden im Vergleich mit der Kontrolle (ohne Wirkstoff-Zusatz) beurteilt: • 0 = kein Pilzwachstum (Pilzmyzel abgetötet) • 1 = geringes Pilzwachstum (bis 1/3 der Agaroberfläche bewachsen) • 3 = mittleres Pilzwachstum (bis 2/3 der Agaroberfläche bewachsen) • 5 = ungehemmtes Pilzwachstum (gesamte Agaroberfläche bewachsen)

Chaetomium globosum = assay: as above; assay type: cell-based; design: key: 0 = kein Pilzwachstum (Pilzmyzel abgetötet); 1 = geringes Pilzwachstum (bis 1/3 der Agaroberfläche bewachsen); 3 = mittleres Pilzwachstum (bis 2/3 der Agaroberfläche bewachsen); 5 = ungehemmtes Pilzwachstum (gesamte Agaroberfläche bewachsen); details: 40 ppm in 5 % malt extract agar; 5 days at 25 °C; growth score
Description: as §1, §2

Trametes versicolor = assay: as above; assay type: cell-based; design: key: 0 = kein Pilzwachstum (Pilzmyzel abgetötet); 1 = geringes Pilzwachstum (bis 1/3 der Agaroberfläche bewachsen); 3 = mittleres Pilzwachstum (bis 2/3 der Agaroberfläche bewachsen); 5 = ungehemmtes Pilzwachstum (gesamte Agaroberfläche bewachsen); details: 40 ppm in 5 % malt extract agar; 5 days at 25 °C; growth score
Description: as §1, §2

Trichoderma viride = assay: as above; assay type: cell-based; design: key: 0 = kein Pilzwachstum (Pilzmyzel abgetötet); 1 = geringes Pilzwachstum (bis 1/3 der Agaroberfläche bewachsen); 3 = mittleres Pilzwachstum (bis 2/3 der Agaroberfläche bewachsen); 5 = ungehemmtes Pilzwachstum (gesamte Agaroberfläche bewachsen); details: 40 ppm in 5 % malt extract agar; 5 days at 25 °C; growth score
Description: as §1, §2

Pullularia pullulans = assay: Versuch 5: filter paper disc inhibition zone test on malt extract agar; assay type: cell-based; details: 72 h, discs soaked with 0,2 ml of 200 ppm solution, 3 days at 22 to 24 °C, read-out: Wirksamkeit gegen Pullularia pullulans
Experimental: Filtrierpäpierscheiben mit einem Durchmesser von 13 mm und einer Stärke von 1 mm werden mit 0,2 ml Lösungen getränkt, die jeweils 200 Teile Wirkstoff je Million Teile Lösung (ppm) enthalten. Die Scheiben werden dann auf einem 2 %igen Malzextraktagar in Petrischalen gelegt, die zuvor getrennt mit Sporen des holzverfärbenden Pilzes Pullularia pullulans beimpft wurden. Anschließend werden die Schalen 3 Tage lang bei 22 bis 24 °C bebrütet. Nach dieser Zeit hat sich der Pilz in den Kontrollschalen sehr gut entwickelt.
Die fungizide Wirksamkeit der Wirkstoffe wird anhand der um die Filtrierpapierscheiben herum entstandenen pilzfreien Zonen (Hemmhöfe) wie folgt beurteilt: […]

Botrytis cinerea = assay: Versuch 4: activity against Botrytis cinerea on paprika seedlings; assay type: in vivo; details: 0,05 %ige Spritzbrühe; sprayed before inoculation; assessed after 5 days; value given as 'beispielsweise'
Description: Paprikasämlinge der Sorte "Neusiedler Ideal Elite" wurden, nachdem sich 4 bis 5 Blätter gut entwickelt hatten, mit wäßrigen Suspensionen, die 80 % Wirkstoff und 20 % Emulgiermittel in der Trockensubstanz enthielten, tropfnaß gespritzt. Nach dem Antrocknen des Spritzbelages wurden die Pflanzen mit einer Konidienaufschwemmung des Pilzes Botrytis cenerea besprüht und bei 22 bis 24 C in eine Kammer mit hoher Luftfeuchtigkeit gestellt. Nach 5 Tagen hatte sich die Krankheit auf den unbehandelten Kontrollpflanzen so stark entwickelt, daß die entstandenen Blattnekrosen den überwiegenden Teil der Blätter bedeckten.

[1] = test system: Weizenbraunrost (Puccinia recondita); assay: Versuch 2: activity against wheat brown rust on wheat seedlings; assay type: in vivo; details: 0,025; 0,006; 0,0015 %ige Spritzbrühen; sprayed 24 h after inoculation; assessed after 8 days; value given as 'beispielsweise'
Experimental: Blätter von in Töpfen gewachsenen Weizensämlingen der Sorte "Jubilar" wurden mit Sporen des Braunrostes (Puccinia recondita) bestäubt. Danach wurden die Töpfe für 24 Stunden bei 20 bis 22°C in eine Kammer mit hoher Luftfeuchtigkeit (90 bis 95 %) gestellt. Während dieser Zeit keimten die Sporen aus und die Keimschläuche drangen in das Blattgewebe ein. Die infizierten Pflanzen wurden anschließend mit wäßrigen Spritzbrühen, die 80 % Wirkstoff und 20 % Emulgiermittel in der Trockensubstanz enthielten, tropfnaß gespritzt. Nach dem Antrocknen des Spritzbelages wurden die Versuchspflanzen im Gewächshaus bei Temperaturen zwischen 20 und 22°C und 65 bis 70 % relativer Luftfeuchte aufgestellt. Nach 8 Tagen wurde das Ausmaß der Rostpilzentwicklung auf den Blättern ermittelt.

[2] = test system: Gurkenmehltau (Erysiphe cichoracearum); assay: Versuch 3: activity against cucumber powdery mildew on cucumber seedlings; assay type: in vivo; details: 0,025 %ige Spritzbrühe; sprayed about 20 h after inoculation; assessed after 21 days; value given as 'beispielsweise'
Description: Blätter von in Töpfen gewachsenen Gurkenkeimlingen der Sorte "Chinesische Schlange" wurden im Zweiblattstadium mit einer Sporensuspension des Gurkenmehltaus (Erysiphe cichoracearum) besprüht. Nach etwa 20 Stunden wurden die Versuchspflanzen mit wäßriger Spritzbrühe, die 80 % Wirkstoff und 20 % Emulgiermittel in der Trockensubstanz enthielt, bis zur Tropfnässe besprüht. Nach dem Antrocknen des J Spritzbelages wurden sie anschließend im Gewächshaus bei Temperaturen zwischen 20 und 22^00 und 70 bis 80 % relativer Luftfeuchtigkeit aufgestellt. Zur Beurteilung der Wirksamkeit der neuen Stoffe wurde das Ausmaß der Pilzentwicklung nach 21 Tagen beurteilt.

[3] = test system: Weizenmehltau (Erysiphe graminis var. tritici); assay: Versuch 1: activity against wheat powdery mildew on wheat seedlings; assay type: in vivo; details: 0,025; 0,006; 0,0015 %ige Spritzbrühen; sprayed 24 h before inoculation; assessed after 7 days; value given as 'beispielsweise'
Experimental: Blätter von in Töpfen gewachsenen Weizenkeimlingen der Sorte "Jubilar" wurden mit wäßriger Spritzbrühe, die 80 % (Gew.%) Wirkstoff und 20 % Emulgiermittel in der Trockensubstanz enthielt, besprüht und 24 Stunden nach dem Antrocknen des Spritzbelages mit Oidien (Sporen) des Weizenmehltaus (Erysiphe graminis var. tritici) bestäubt. Die Versuchspflanzen wurden anschließend im Gewächshaus bei Temperaturen zwischen 20 und 22 °C und 75 bis 80 % relativer Luftfeuchtigkeit aufgestellt. Nach 7 Tagen wurde das Ausmaß der Mehltauentwicklung ermittelt.

Structure (SMILES) | Wirksamkeit gegen Coniophora puteana (Coniophora puteana) | Wirksamkeit gegen Chaetomium globosum (Chaetomium globosum) | Wirksamkeit gegen Trametes versicolor (Trametes versicolor) | Wirksamkeit gegen Trichoderma viride (Trichoderma viride) | zone of inhibition at 200 ppm (Pullularia pullulans) | fungizide Wirkung gegen Botrytis cinerea an Paprika (Botrytis cinerea) | fungizide Wirkung gegen Weizenbraunrost [1] | fungizide Wirkung gegen Gurkenmehltau [2] | fungizide Wirkung gegen Weizenmehltau [3]
CC1(Cn2cncn2)OC1c1ccc(Cl)cc1Cl (single isomer, unassigned) [Beispiel 22] | 1 | 1 | 0 | 1 | > 6 mm | – | – | – | –
Clc1ccc(C2OC2(Cn2cncn2)c2ccc(-c3ccccc3)cc2)cc1 (single isomer, unassigned) [Beispiel 42] | 0 | 0 | 0 | 0 | > 6 mm | 97% | 100% | 100% | 100%
Fc1ccc(C2OC2(Cn2cncn2)c2ccc(Cl)cc2)cc1 (single isomer, unassigned) [Beispiel 50] | 0 | 0 | 0 | 0 | > 6 mm | – | – | – | –
